In US5962533A, “Hydroxy polyamines” (priority 1996, dated 1999):
Several values for one entry are separate records, joined by “and”; a condition that tells them apart may be missing. Equal entries are not always repeated. Where two headings read alike, the source gives them in different places.

Legend:
[1] = test system: polyamine transport apparatus; experiment: Competition with radiolabeled spermidine for uptake into L1210 cells (Ki); type: cell-based, Murine
Description: The same cell line was utilized to evaluate the tetraamines's competition with radiolabeled spermidine for the polyamine uptake apparatus (Ki). The Ki values here are the concentrations of drugs required to inhibit the uptake of radioactive spermidine transport by 50% (Table 1).
Uptake Determinations. The polyamine derivatives were studied for their ability to compete with [^3 H]SPD or [^14 C]SPD for uptake into L1210 leukemia cells in vitro. Cell suspensions were incubated in 1 ml of RPMI-1640 containing 1, 2, 4, 6, 8 and 10 μm radiolabeled SPD alone or with the additional presence of 10, 25 and 50 μm polyamine analogue for 20 minutes at 37° C. At the end of the incubation period, tubes were centrifuged at 900 g for 5 minutes at 0-4° C. The pellet was washed twice with 5 ml of cold RPMI-1640 containing 1 mm SPD, dissolved in 200 μl of 1N NaOH at 60° C. for 1 hour, and neutralized with 1N HCl. The material was transferred to a vial for scintillation counting.

[2] = test system: castor oil-induced diarrhea; experiment: Castor oil-induced diarrhea; type: in vivo, rat; conditions: rat; for stool output / diarrhea during 6 hour assay (FIG. 8): subcutaneous injection 30 minutes before castor oil 5 ml/kg
Description: Castor Oil-Induced Diarrhea. Male Sprague-Dawley rats (350-400 g) were fasted overnight in hanging wire cages and allowed free access to water.

[3] = Protonation state at physiological pH assumed from measured pKa values; type: physicochemical; conditions: physiological pH of 7.2
Description: All of the non-aromatic, non-trifluoroethylated tetraamines are largely in the form of the tetracation at the physiological pH of 7.2. The spermine analogues (13-16 and 34) and the homospermine analogues and homologues (18-26, 29 and 31-33) should be 85 and 97%, respectively, in the form of the tetracations. The norspermine analogues (9-12) should be at least 74% in the form of the tetracations. […] Thus, the calculation of atomic charges and conformational search of these analogues were carried out based on the anticipated protonated structures.

[4] = Acute toxicity, single intraperitoneal injection; conditions: mouse, in vivo, ip
[5] = test system: L1210 cells; experiment: Polyamine pool analysis in analogue-treated L1210 cells (HPLC); type: cell-based, Murine
Description: Polyamine Pool Analysis. While in logarithmic growth, cells were treated with the polyamine derivatives. […] Each supernatant was frozen at -20° C. until analysis by HPLC.

[6] = test system: L1210 cells; experiment: L1210 growth inhibition, IC50 determinations; type: cell-based, Murine; conditions: L1210 cells
Description: IC50 Determinations. Cells were grown in 25 cm^2 tissue culture flasks in a total volume of 10 ml. Cultures were treated while in logarithmic growth (0.5-1.0×10^5 cells/ml) with the polyamine derivative diluted in sterile water and filtered through a 0.2 μm filter.
After the indicated time periods, cells were removed from the incubator for counting. Cell number was determined by electronic particle counting (Model ZF coulter counter, Coulter Electronics, Hialeah, Fla.) and confirmed periodically with hemocytometer measurements.
The percentage of control growth was determined as follows: [formula]

[7] = Metabolism of (HO)2 DEHSPM v. DEHSPM in mouse liver and kidney (HPLC); type: in vivo
Description: Metabolism of (HO)2 DEHSPM v. DEHSPM in Mouse Liver and Kidney. […] In ease case, animals were sacrificed for HPLC analysis one day after the final dose.
HPLC Analysis of Polyamines. Various tissues including the liver and kidney were prepared for HPLC analysis of polyamine content. In order to facilitate their handling, the organs were submerged in liquid nitrogen. Once frozen and weighed, the tissues were homogenized (Tissuemizer, Tekmar, Cincinnati, Ohio) in 1.2N perchloric acid (containing 1,7-diaminoheptane internal standard) in a 1:20 (w/v) ratio. The tissue homogenates were then freeze-thawed three times and stored in a -70° C. freezer until HPLC analysis was performed.
Each chromatographic assay included calibration standards which were treated in the same manner as the samples. […] The concentration of each polyamine was calculated from the peak area by calibration curves obtained by non-weighted least squares linear regression. Peak area and linear regression calculations were performed on a Macintosh Centris 650 with Rainin Dynamax HPLC Method Manager software (Rainin Instrument Co., Ridgefield, N.J.).

[8] = mice, three weeks after a seven day schedule; cited from earlier work
[9] = Chronic toxicity, one dose per day for five days; type: in vivo; conditions: mouse, in vivo
Description: In the chronic toxicity regimen, mice were administered the polyamine analogue as one dose per day for five days. Appetite, weight and overall physical appearance were recorded at the time of each injection. After the treatment regimen had been completed, the animals were observed an additional 10 days. The chronic toxicity dosing regimen was set up so that at least one test group was presented with a high fraction of lethalities.

[10] = test system: NMDA receptor; experiment: NMDA assay: specific [3H]MK-801 binding to washed rat cerebral cortical membranes; conditions: 100 μm L-glutamate, 100 μm glycine, 2 nm [3H]MK-801
Description: FIG. 4 depicts the effects of (HO)2 DEHSPM and DEHSPM on the NMDA receptor (MK-801 binding). Each data point represents the mean ±s.d. of three experiments. Each experiment was, in turn, performed in triplicate. "100% activity" is defined as the amount of specific MK-801 binding to washed rat cerebral cortical membranes in the presence of saturating concentrations of coagonists (100 μm L-glutamate, 100 μm glycine) and 2 nm [^3 H]MK-801.
NMDA Assay. The procedure for measuring specific binding of [^3 H]MK-801 to the N-methyl-D-aspartate receptor complex was a modification of the method of Ransom and Stec [J. Neurochem., Vol. 51, pages 830-836 (1988)]. Cerebral cortices from young male Sprague-Dawley rats (200-300 g) were homogenized with 10 volumes ice-cold 0.32M sucrose using a motor-driven glass/Teflon homogenizer. The homogenate was centrifuged at 1,000 g for 10 minutes and the pellet was discarded. The supernatant was then centrifuged at 18,000 g for 20 minutes. The 18,000 g pellet was then resuspended in 10 volumes buffer A (5 mm Tris-HCl, pH 7.7) at 4° C., homogenized using high-intensity ultrasound and centrifuged at 8,000 for 20 minutes. The supernatant and upper buffy coat of the pellet were combined and centrifuged at 50,000 g for 20 minutes. The pellet was then resuspended in 10 volumes buffer A and homogenized using high-intensity ultrasound. These resuspended membranes were then centrifuged at 50,000 g, discarding the supernatant. The membranes were washed in this manner an additional three times and stored as a frozen suspension at -80° C. for at least 18 hours, but no longer than 2 weeks before use.
For binding experiments, frozen membranes were thawed, pelleted at 50,000 g for 20 minutes and washed as described above, except that 20 volumes of buffer A were used for resuspension, for a total of four times. The final pellet was resuspended in buffer B (5 mm Tris-HCl, pH 7.5) at 23° C. The binding assay mixture was 1.00 ml buffer B containing 200-300 μg membrane protein, 100 μm L-glutamate, 100 μm glycine, 2 nm [^3 H]MK-801 and tetraamine at the following concentrations: 0 ("100%+L-glu,+gly-Control") and 0.05, 0.1, 0.5, 1, 5, 10, 50, 100, 500 and 1,000 μm. Non-specific binding was determined using 100 μm MK-801.
Binding assays were performed in triplicate at 23° C. for one hour and were terminated by filtration through Whatman GF/B glass fiber filters followed by three 4.0 ml rinses of ice-cold buffer B using a Brandel M-48 Cell Harvester.

[11] = tetraamine analogues, L1210 cells, radiolabeled spermidine uptake, read-out: Ki, actual (Table 1)
[12] = triamine analogues, bioassay results not in model data set, read-out: Ki, Actual (Table 2)
[13] = 24 h after regimen, normalized for 30 g mouse
[14] = liver and kidneys, 24 h after regimen, 30 g mouse
[15] = mouse, one day after subchronic equimolar i.p. regimen

CC(C)(C)NCCCCNCCCCNCCCCNC(C)(C)C [DTBHSPM]
Ki [1, 11]: 56 µM

NCCCCNCCCCNCCCCN [HSPM, homospermine]
stool output / diarrhea during 6 hour assay (FIG. 8) [2]: became diarrheal during the 6 hour assay

CCNCCCCNCCCCCNCCCCNCC [DE(4,5,4)]
Ki [1, 11]: 6 µM

CNCCCNCCCCNCCCNC [DMSPM]
Ki [1, 11]: 1.1 µM

FC(F)(F)CNCCCNCCCCNCCCNCC(F)(F)F [FDESPM, N^1,N^12-bis(2,2,2-trifluoroethyl)spermine]
protonation state [3]: almost exclusively in the form of the internal dication
Ki [1, 11]: 285 µM

CCNCCCCNCCCNCC [DESPD]
Ki [1, 12]: 19.3 µM

CC(C)NCCCNCCCNCCCNC(C)C [DIPNSPM]
Ki [1, 11]: 40 µM

CCCNCCCNCCCCNCCCNCCC [DPSPM]
Ki [1, 11]: 2.3 µM

NCCCNCCCN [NSPD, norspermidine]
Ki [1, 12]: 8.4 µM

CNCCCCNCCCCNCCCCNC [DMHSPM]
Ki [1, 11]: 0.97 µM

CC(C)NCCCCNCCCCNCCCCNC(C)C [DIPHSPM]
Ki [1, 11]: 8.1 µM

CCNCCCCNCCCCNCCCCN [MEHSPM, N^1 -ethylhomospermine]
Ki [1, 11]: 1.1 µM

CCNCCCNCCCNCCCNCC [DENSPM, Diethylnorspermine]
anti-diarrheal activity ([2]; 40 mg/kg): far less active than the homospermine compounds
stool output / diarrhea during 6 hour assay (FIG. 8) [2]: became diarrheal during the 6 hour assay
Ki [1, 11]: 17 µM
LD50 [4]: 325 mg/kg

CCNCCCNCCCNCC [DENSPD]
Ki [1, 12]: 200 µM

CCCNCCCNCCCNCCCNCCC [DPNSPM]
anti-diarrheal activity ([2]; 15 mg/kg): far less active than the homospermine compounds
stool output / diarrhea during 6 hour assay (FIG. 8) [2]: became diarrheal during the 6 hour assay

c1cc(CNCCCCNCc2ccncc2)ccn1 [PYR(4,4,4)]
protonation state [3]: almost exclusively in the form of the internal dication
Ki [1, 11]: > 500 µM

CCNCCCCNCCCCNCCCCNC(C)(C)C [ETBHSPM]
Ki [1, 11]: 3 µM

CCNCCCCNCCCCNCC [DEHSPD]
Ki [1, 12]: 115 µM

CCNCCCCNCCCCNCCCNCC [DE(3,4,4)]
Ki [1, 11]: 8 µM

CCNCCCCNCCCNCCCCNCC [DE(4,3,4)]
Ki [1, 11]: 4 µM

C(CCNCC1CCNCC1)CNCC1CCNCC1 [PIP(4,4,4)]
Ki [1, 11]: 4.9 µM

NCCCCNCCCCN [HSPD]
Ki [1, 12]: 3.5 µM

CCNCCCNCCCCNCCCNCC [DESPM]
Ki [1, 11]: 1.6 µM

CCNCCCNCCCNCCCN [MENSPM, N^1 -ethylnorspermine]
Ki [1, 11]: 7.7 µM

CCNCCCNCCCCN [N^1 -MESPD]
Ki [1, 12]: 8.6 µM

CCNCCCCNCCCN [N^8 -MESPD]
Ki [1, 12]: 7 µM

C(CCNCCC1CCNCC1)CNCCC1CCNCC1 [PIP(5,4,5)]
Ki [1, 11]: 18.1 µM

CNCCCNCCCNCCCNC [DMNSPM]
Ki [1, 11]: 5.6 µM

C(CCNC1CCNCC1)CNC1CCNCC1 [PIP(3,4,3)]
Ki [1, 11]: 60.5 µM

c1cc(NCCCNc2ccncc2)ccn1 [PYR(3,3,3)]
protonation state [3]: terminal dication
Ki [1, 11]: > 500 µM

C(CCNCCCCNC12CC3CC(CC(C3)C1)C2)CNCCCCNC12CC3CC(CC(C3)C1)C2 [BAHSPM]
Ki [1, 11]: 2 µM

CCNCCCCNCCCCNCCCCNCC [DEHSPM, Diethylhomospermine]
SPM level relative to untreated controls ([5]; L1210 cells, 10 μm analogue, 48 hours, control = 100%): 60% and 61%
N-deethylation by L1210 cells ([5]; in vitro conditions): do not N-deethylate
IC50 ([6]; 96 h, read-out: IC50 96 h): 0.05 to 0.09 µM
IC50 ([6]; Mus musculus, L1210, 48 h, 48 h, read-out: IC50 48 h): 0.2 µM
IC50 ([6]; Mus musculus, L1210, 96 h, 96 h, read-out: IC50 96 h): 0.07 µM
% of total dose present as total drug + metabolite, Kidneys [7, 13]: 9.67%
% of total dose present as total drug + metabolite, Liver [7, 13]: 24.15%
% of total dose present as unmetabolized parent drug, Kidneys [7, 13]: 3.14 ± 1.37%
% of total dose present as unmetabolized parent drug, Liver [7, 13]: 1.84 ± 0.53%
Amount of total dose present as dideethylated metabolite HSPM/(HO)2 HSPM, Kidneys [7, 13]: 0.408 µmol
Amount of total dose present as dideethylated metabolite HSPM/(HO)2 HSPM, Liver [7, 13]: 1.394 µmol
Amount of total dose present as total drug + metabolite, Kidneys [7, 13]: 0.604 µmol
Amount of total dose present as total drug + metabolite, Liver [7, 13]: 1.509 µmol
Amount of total dose present as unmetabolized parent drug, Kidneys [7, 13]: 0.196 µmol
Amount of total dose present as unmetabolized parent drug, Liver [7, 13]: 0.115 µmol
% of total dose present as total drug + metabolite, Both Tissues [7, 14]: 33.8% and 33.82%
% of total dose present as unmetabolized parent drug, Both Tissues [7, 14]: 5.0% and 4.98%
Amount of total dose present as dideethylated metabolite HSPM/(HO)2 HSPM, Both Tissues [7, 14]: 1.80 µmol and 1.802 µmol
Amount of total dose present as total drug + metabolite, Both Tissues [7, 14]: 2.11 µmol and 2.113 µmol
Amount of total dose present as unmetabolized parent drug, Both Tissues [7, 14]: 0.313 µmol and 0.311 µmol
level of unchanged drug in kidney [7, 15]: 409±178 nmol/g wet weight
level of unchanged drug in liver [7, 15]: 43.9±12.6 nmol/g wet weight
prevention of castor oil-induced diarrhea ([2]; 5 mg/kg subcutaneous, six hour assay): effectively prevented the onset of diarrheal stooling
stool output / diarrhea during 6 hour assay (FIG. 8) [2]: virtually no stool output
Ki ([1]; L1210 cells, estimated from Lineweaver-Burke plots, read-out: Ki, [3H]-spermidine transport): 1.4 µM
Ki [1, 11]: 1.4 µM
drug administered remaining in liver and kidney as drug or metabolites [8]: 35%
share of drug remaining in the animal that is in the form of HSPM [8]: 90%
greater chronic toxicity of DEHSPM v. DENSPM [9]: 4-5 fold
LD50 ([9]; read-out: chronic LD50): 38 mg/kg
concentration showing agonist activity on MK-801 binding [10]: 0.5-1.0 μm
concentrations of maximal antagonism of MK-801 binding [10]: ≥ 50 μm
concentrations showing marked antagonist activity on MK-801 binding [10]: above 5 μm
LD50 [4]: 325 mg/kg
